Test results as given in publication PMC6783563 (Frontiers in Microbiology, 2019).
Entries after “also recorded” stand apart in the source; their conditions may differ. Read-outs that look alike come from different tables or passages of the source. Residues, ends and D or L forms follow the SMILES beside them. *: point of attachment. Orn(α-tetramethylguanidino) = CN(C)C(=N[C@@H](CCCN)C(=O)*)N(C)C

Assays:
[1] = EDTA plasma of CD-1 mice after continuous sc infusion of Api137 (12.8 mg/kg/h) using ALZET osmotic pumps; details: up to 24 h
[2] = system: Escherichia coli ATCC 25922; assay: Lethal murine intraperitoneal sepsis (infection) model; type: in vivo, CD-1 mice; details: control, iv 0.25 mg/kg at 1 h post infection, n = 6
Description: Escherichia coli ATCC 25922 was obtained from American Type Culture Collection (Manassas, VA, United States). Cells were grown overnight on solid agar, suspended in saline and adjusted to an OD of 0.1 at 625 nm. The suspension was further diluted in 5% hog gastric mucin (Sigma-Aldrich Corporation, St. Louis, MO, United States) and final inoculums between 4.8 × 10^5 and 2.0 × 10^6 colony forming units (cfu) per mouse were injected ip (500 μL). Api137 and levofloxacin was dissolved in sterile saline and sterile water, respectively, and were administered iv (5 mL/kg) into the tail vein or sc (10 mL/kg) into the back. Alternatively, an hour post infection ALZET® osmotic pumps were implanted under isoflurane anesthesia (see above). After 24 h, pumps were exchanged once and finally removed after 48 h.
The log-rank (Mantel-Cox) test was used for comparison of the survival curves and dose-response curves were fitted with the “dose-response log(inhibitor) vs. normalized response – variable slope” function with “least squares fit” using GraphPad Prism 5.02.

[3] = mouse, in vivo, cited from earlier work
Excerpt: In particular, cationic proline-rich antimicrobial peptides (PrAMPs) belong to the second group binding to the negatively charged bacteria surface by electrostatic interactions through basic amino acid residues. Proline residues account for extended, partially polyproline helix II-like secondary structures that most likely support free penetration through the outer membrane of Gram-negative bacteria. PrAMPs accumulate in the periplasmic space where the transporters SbmA and MdtM actively translocate them into the cells ([Mattiuzzo et al., 2007]; [Runti et al., 2013]; [Krizsan et al., 2015a]). ... || Severe multi-drug resistant infections are treated under medical supervision in the hospital using intravenous injection or infusion as preferred administration route for rapid and controlled achievement of efficacious drug plasma levels. […] Unexpectedly, the maximal plasma levels of 6.8 mg/L obtai ...

SD rats = assay: Tolerance study after intravenous injection in rats; type: in vivo, rat; details: monitored 24 h, n = 1
Description: (§1) Eight female CD-1 mice (22–30 g, n = 2) or four SD rats (218–260 g, n = 1) were treated iv (10 and 5 mL/kg, respectively) with Api137 formulated in 0.9% saline (TEKnova, Hollister, CA, United States) at concentrations of 5, 10, 25, and 50 mg/kg body weight and their behavior monitored for 24 h.

mouse = details: in vivo, ip, 10 mg/kg; cited from earlier work
Excerpt: In particular, cationic proline-rich antimicrobial peptides (PrAMPs) belong to the second group binding to the negatively charged bacteria surface by electrostatic interactions through basic amino acid residues. Proline residues account for extended, partially polyproline helix II-like secondary structures that most likely support free penetration through the outer membrane of Gram-negative bacteria. PrAMPs accumulate in the periplasmic space where the transporters SbmA and MdtM actively translocate them into the cells ([Mattiuzzo et al., 2007]; [Runti et al., 2013]; [Krizsan et al., 2015a]). ...

[4] = Pharmacokinetics: Api137 plasma levels after iv or sc injection in mice; design: species or system CD-1 mice; details: in vivo
Description: (§2) Api137 dissolved in 0.9% saline was injected iv or sc in mice (18–26 g, total = 51) and rats (204–248 g, total = 12) at a dose volume of 10 and 5 mL/kg BW, respectively, according to the dosing scheme (Supplementary Figures 1, 2). Three mice per dose and time point were euthanized by carbon dioxide inhalation and blood was collected via cardiac puncture into K2-EDTA Microtainer® tubes (Becton Dickinson and Company, BD, Franklin Lakes, NJ, United States). Additionally, blood was collected via saphenous vein puncture from three rats into identic tubes.
(§3) Api137 was quantified in EDTA plasma samples using reversed-phase chromatography (RP-HPLC) coupled to electrospray ionization mass spectrometry (ESI-MS/MS) at TNO Triskelion (Zeist, Netherlands). Analog Api134 was used as internal standard. Briefly, internal standard solution (10 μL, 5 mg/L) was added to a plasma sample (50 μL) and mixed with aqueous phosphoric acid (50 μL; 4%, v/v). Solid phase extraction was performed on a WCX micro-elution plate (Waters Corporation, Milford, MA, United States) with a final elution using aqueous acetonitrile (75%, v/v) containing 1% (v/v) trifluoroacetic acid. Extracts were analyzed on an Acquity C18 BEH column (2.1 mm internal diameter, 10 cm length, 1.7 μm particle size; Waters) using an Acquity UPLC system coupled online to a XEVO TQS mass spectrometer (Waters; for details see Supplementary Material). Alternatively, Api137 and metabolites 1–16 and 1–17 were quantified for selected samples in house as reported recently ([Schmidt et al., 2017]).
(§4) 1. Quantitative analysis of Api137 in plasma using a LC-MS/ MS method
(§5) Chemicals were obtained from the following manufacturers. Biosolve B.V. (Valkenswaard, The Netherlands): acetonitrile, formic acid, methanol (all ULC/MS grade); Sigma-Aldrich (St.
(§6) Louis, MO, USA): phosphoric acid (Fluka, 85%), trifluoroacetic acid (Reagent Plus, 99%); Merck KGaA (Darmstadt, Germany): ammonia (25%); water (Milli -Q® Advantage A10 Water […]
(§7) Internal standard solution (10 µL, Api134, 5 µg/mL) was added to a plasma sample (50 µL or 25 µL) and mixed with aqueous phosphoric acid (50 µL or 75 µL; 4%, v/v). Solid phase extraction (SPE) was performed on a WCX micro -elution plate (2 mg, Waters):
(§8) Conditioning I Methanol 200
(§9) Conditioning II Purified water 200
(§10) Sample application Diluted plasma sample 110
(§11) Wash step I Aqueous ammonia (5%, v/v) 200
(§12) Wash step II Aqueous acetonitrile (20%, v/v) 200
(§13) Elution I Aqueous acetonitrile (75%, v/v) including trifluoroacetic 50 […]
(§14) Elution II Aqueous acetonitrile (75%, v/v) including trifluoroacetic 50 […]
(§15) Water (100 µL) was added to the eluate and the plate was covered to avoid avaporation. The plate was shaken (10 min, plate shaker) and the extract was analysed using RPC-MS/MS.
(§16) (1 picture or pasted object on this page, not shown here)
(§17) 1.2.RPC-ESI-MS/MS equipment and conditions
(§18) Equipment/Parameter Value
(§19) UPLC system Acquity (Micromass Waters)
(§20) UPLC column temperature 50 °C
(§21) Autosampler temperature 10 °C […]
(§22) Mobile phase A 1% formic acid in water
(§23) Mobile phase B 1% formic acid in acetonitrile
(§24) Strong Wash [Volume] Methanol/Water/Formic acid (80/20/0.1) [200 µL]
(§25) Weak wash [Volume] Acetonitrile/Water/Trifluoroacetic acid (40/60/0.25) [600 µL]
(§26) Mass spectrometer XEVO TQS (Micromass Waters)
(§27) Ionization mode Electrospray ionization (positive mode)
(§28) Source temperature 150 °C
(§29) Desolvation temperature 600 °C
(§30) Desolvation gas flow 1000 L/h
(§31) Time [min] Mobile phase B [%]
(§32) 1.4.Conditions for multiple reaction monitoring
(§33) Peptide Precursor ion (m/z) Product ion (m/z) Cone [V] Collision energy [eV]
(§34) The peak area of the peptides was obtained using MassLynx 4.1 software (Micromass Waters). The peak a rea ratio (PAR) of peptide Api137 and the internal standard Api134 (Y-axis) was plotted versus the actual peptide concentration (x -axis) to construct a calibration […]
(§35) Supplementary Figure 1 : Dosing schemes and time -points of blood collection for pharmacokinetic analysis of three mice per dose group and time -point. […]

in vivo = assay: in vivo; design: species or system Sprague Dawley rats; details: Sprague Dawley, rat
Description: as §2, §3, §4, §5, §6, §7, §8, §9, §10, §11, §12, §13, §14, §15, §16, §17, §18, §19, §20, §21, §22, §23, §24, §25, §26, §27, §28, §29, §30, §31, §32, §33, §34, §35

CD-1 mice = assay: Tolerance study after intravenous injection in mice; type: in vivo, mouse; details: female CD-1 mice, n = 2
Description: as §1

[5] = CD-1, mouse, iv, 5 mg/kg, Plasma level
[6] = CD-1, mouse, iv, 10 mg/kg, Plasma level
[7] = CD-1, mouse, iv, 20 mg/kg, Plasma level
[8] = CD-1, mouse, sc, 20 mg/kg, Plasma level

Compound: Gu-ONNRPVYIPRPRPPHPRL-OH
- fragment found [1]: Api137(1-17), major, 1 h; also recorded: Api137(1-16), major, 1 h

Compound: C[C@H]1COc2c(N3CCN(C)CC3)c(F)cc3c(=O)c(C(=O)O)cn1c23 [levofloxacin]
- Efficacy compared with Api137 [2]: more efficacious

Compound: CC[C@H](C)[C@H](NC(=O)[C@H](Cc1ccc(O)cc1)NC(=O)[C@@H](NC(=O)[C@@H]1CCCN1C(=O)[C@H](CCCNC(=N)N)NC(=O)[C@H](CC(N)=O)NC(=O)[C@H](CC(N)=O)NC(=O)[C@H](CCCN)N=C(N(C)C)N(C)C)C(C)C)C(=O)N1CCC[C@H]1C(=O)N[C@@H](CCCNC(=N)N)C(=O)N1CCC[C@H]1C(=O)N[C@@H](CCCNC(=N)N)C(=O)N1CCC[C@H]1C(=O)N1CCC[C@H]1C(=O)N[C@@H](Cc1c[nH]cn1)C(=O)N1CCC[C@H]1C(=O)N[C@@H](CCCNC(=N)N)C(=O)N[C@@H](CC(C)C)C(=O)O [Api137] ({Orn(α-tetramethylguanidino)}-NNRPVYIPRPRPPHPRL-OH)
- Plasma level ([3]; ip, 5 mg/kg): 0.2 mg/L
- Maximal plasma level ([3]; ip, 20 mg/kg): 3.6 mg/L
- Plasma level (maximal) ([3]; iv, 5 mg/kg): 0.4 mg/L
- Tolerance after iv injection (SD rats; 5 mg/kg iv): No adverse effects were observed
- Tolerance after iv injection (SD rats; 10 to 50 mg/kg iv): experienced labored breathing and lethargy but recovered to normal limits within 5 h post injection
- Immune response (anti-Api137 IgG antibodies) (mouse): Only one mouse showed a very weak immune response with a very low level of anti-Api137 IgG antibodies
- level at 0.5 h ([4]; CD-1, mouse, 20 mg/kg, Plasma level after 30 min): ~500 ng/mL
- Plasma level ([4]; CD-1, mouse, iv): 5 to 20 ng/mL
- level at 245 min ([4]; CD-1, mouse, iv, 5 mg/kg, Plasma concentration): 10100 ng/mL
- level at 5 min [4, 5]: 6800 ng/mL
- level at 0.5 h [4, 5]: 90 ng/mL
- level at 245 min ([4]; CD-1, mouse, iv, 10 mg/kg, Plasma concentration): 10500 ng/mL
- level at 5 min [4, 6]: 12900 ng/mL
- level at 0.5 h [4, 6]: 300 ng/mL
- level at 4.5 h [4, 6]: 160 ng/mL
- level at 245 min ([4]; CD-1, mouse, iv, 20 mg/kg, Plasma concentration): 22900 ng/mL
- level at 5 min [4, 7]: 23200 ng/mL
- level at 0.5 h [4, 7]: 440 ng/mL
- level at 125 min [4, 7]: 15400 ng/mL
- level at 245 min [4, 7]: 12500 ng/mL
- level at 4.5 h [4, 7]: 90 ng/mL
- level at 5 min ([4]; CD-1, mouse, sc, 5 mg/kg, Plasma level): 400 ng/mL
- level at 5 min ([4]; CD-1, mouse, sc, 10 mg/kg, Plasma level): 900 ng/mL
- level at 5 min [4, 8]: 2900 ng/mL
- level at 0.5 h [4, 8]: 300 ng/mL
- level at 1 h [4, 8]: 14 ng/mL
- half-life ([4]; mouse, iv, 20 mg/kg): < 30 min
- level at 0.5 h (in vivo; iv): 160 to 210 ng/mL
- level at 5 min (in vivo; sc, 5 mg/kg): 100 ng/mL
- level at 0.5 h (in vivo; sc, 5 mg/kg): 30 ng/mL
- level at 5 min (in vivo; sc, 10 mg/kg): 400 ng/mL
- level at 0.5 h (in vivo; sc, 10 mg/kg): 80 ng/mL
- level at 5 min (in vivo; sc, 20 mg/kg): 800 ng/mL
- level at 0.5 h (in vivo; sc, 20 mg/kg): 250 ng/mL
- level at 1 h (in vivo; sc, 20 mg/kg): 20 ng/mL
- Tolerance after iv injection (CD-1 mice; 5 mg/kg iv in 0.9% saline, monitored 24 h): No adverse effects were observed
- Tolerance after iv injection (CD-1 mice; 50 mg/kg iv): experienced convulsion and low blood pressure immediately after dosing and died within 1 min
- Tolerance after iv injection (CD-1 mice; 10 and 20 mg/kg iv, monitored 24 h): lethargic within minutes directly after dosing with piloerection for the next 45 min but recovered to normal limits within 1 h
